Results on 3 compounds are retold here after US5622951A, “Piperazine derivatives as 5-HT antagonists” (John Wyeth & Brother Ltd., priority 1993, dated 1997).

One may read the IC50 as the concentration that inhibits the measured activity by half. A low value points to higher potency.

Assay [1] concerns the target T1, 5-HT1A receptor (Rattus norvegicus, UniProt P19327).
T1 construct: rat hippocampal membrane homogenate; from tissue; host or cells: rat hippocampus, membrane homogenate
T1 sequence (P19327 1-422): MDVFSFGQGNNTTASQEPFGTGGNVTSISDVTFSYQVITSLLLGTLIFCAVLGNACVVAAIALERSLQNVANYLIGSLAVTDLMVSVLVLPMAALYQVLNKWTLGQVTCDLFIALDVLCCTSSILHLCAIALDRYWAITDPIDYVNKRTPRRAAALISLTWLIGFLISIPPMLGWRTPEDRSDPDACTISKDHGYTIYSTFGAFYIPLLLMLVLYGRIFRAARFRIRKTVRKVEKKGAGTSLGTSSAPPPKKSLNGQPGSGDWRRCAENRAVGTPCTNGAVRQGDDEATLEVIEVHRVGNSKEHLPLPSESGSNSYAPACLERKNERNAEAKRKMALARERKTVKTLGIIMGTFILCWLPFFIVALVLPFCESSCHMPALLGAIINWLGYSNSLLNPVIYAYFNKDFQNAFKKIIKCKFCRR
Kind of assay: 5-HT1A receptor binding in rat hippocampal membrane homogenate (Alexander and Wood). Here is the method: The compounds of the invention were tested for 5-HT1A receptor binding activity in rat hippocampal membrane homogenate by the method of B S Alexander and M D Wood, J Pharm Pharmacol, 1988, 40, 888-891.

Assay [2] addresses T2, 5-HT1A receptor (Cavia porcellus, UniProt A0A286Y074).
T2 construct: in the guinea-pig ileum in vitro; from tissue; host or cells: guinea-pig ileum, isolated
T2 sequence (A0A286Y074 1-421): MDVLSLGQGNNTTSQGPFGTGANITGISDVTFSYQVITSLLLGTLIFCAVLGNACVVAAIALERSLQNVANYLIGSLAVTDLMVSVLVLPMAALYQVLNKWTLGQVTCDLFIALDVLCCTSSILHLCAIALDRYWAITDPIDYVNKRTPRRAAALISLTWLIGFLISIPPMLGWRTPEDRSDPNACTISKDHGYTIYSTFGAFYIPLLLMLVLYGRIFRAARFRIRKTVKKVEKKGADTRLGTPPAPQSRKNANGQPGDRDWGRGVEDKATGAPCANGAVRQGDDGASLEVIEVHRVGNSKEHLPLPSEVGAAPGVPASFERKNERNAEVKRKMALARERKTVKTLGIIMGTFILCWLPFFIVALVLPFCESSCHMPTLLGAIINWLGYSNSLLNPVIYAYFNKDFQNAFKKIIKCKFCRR
Put plainly: 5-HT1A receptor antagonism: antagonism of 5-carboxamidotryptamine in the guinea-pig ileum in vitro (Fozard et al). The following applies: read-out: pA2, 5-HT1A receptor antagonism (converted). The procedure: The compounds are tested for 5-HT1A receptor antagonism activity in a test involving the antagonism of 5-carboxamidotryptamine in the guinea-pig ileum in vitro (based upon the procedure of Fozard et at, Br J Pharmac, 1985, 86, 601P).

For the compound `COc1ccccc1N1CCN(C2CC=C(c3ncc(C)cc3C)CC2)CC1` (stereo not shown) [Example 19, 1-(2-Methoxyphenyl)-4-[1-(3,5-dimethylpyridin-2-yl)-cyclohex-1-en-4-yl]piperazine], at 5-HT1A receptor [1], the IC50 was determined as 1.84 nM. In the case of `COc1ccccc1N1CCN([C@H]2CC[C@H](c3ncc(C)cc3C)CC2)CC1` [Example 20, Trans-1-(2-Methoxyphenyl)-4-[1-(3,5-dimethylpyridin-2-yl)-cyclohex-4-yl]piperazine], the IC50 on 5-HT1A receptor [1] amounted to 1.6 nM. On to `COc1ccccc1N1CCN([C@H]2CC[C@H](c3ccccc3)CC2)CC1` [Example 1 (trans), trans-1-(2-methoxyphenyl)-4-(1-phenylcyclohex-4-yl)piperazine], for which the Kb on 5-HT1A receptor [2] is 0.794 nM. Further, the IC50 at 5-HT1A receptor [1] worked out at 0.6 nM.
